One series deals with T. brucei cells. Description: microbe, parasite or virus in culture. To be noted: for EC50: Trypanosoma brucei, read-out: T. brucei pEC50 (within 46%) (converted). Format: cell-based, Trypanosoma brucei.
In the next series the test system is HepG2 cells. Description: HepG2 host cell toxicity assay. Format: cell-based. The conditions noted are these: HepG2, purchased inhibitors, Table 3.
The test system of a further series is P. falciparum D6. As to the kind of experiment: microbe, parasite or virus in culture. Type of series: cell-based, Plasmodium falciparum. The conditions noted are these: for EC50: Plasmodium falciparum, D6, read-out: P. falciparum D6 pEC50 (converted).
The subject of another series is L. major promastigotes. As to the kind of experiment: microbe, parasite or virus in culture. Type of series: cell-based, Leishmania major. To be noted: for EC50: Leishmania major, read-out: Leishmania Promast pEC50 (converted).
A further series concerns 3T3. As to the kind of experiment: 3T3 host cell toxicity. Format: cell-based.
For series [1], the system named is L. major intracellular amastigotes. As to the kind of experiment: microbe, parasite or virus in culture. Format: cell-based, Leishmania major. To be noted: for EC50: Leishmania major, read-out: Leishmania Amast pEC50 (converted).
The test system of series [2] is T. cruzi intracellular amastigotes (Tulahuen strain). Description: microbe, parasite or virus in culture. Format: cell-based, Trypanosoma cruzi. The conditions noted are these: for EC50: Trypanosoma cruzi, TULAHUEN, read-out: T. cruzi pEC50 (μM) (within 21%) (converted).
The subject of the next series is P. falciparum C235. As to the kind of experiment: microbe, parasite or virus in culture. Format: cell-based, Plasmodium falciparum. To be noted: for EC50: Plasmodium falciparum, read-out: P. falciparum C235 pEC50 (converted).
The next series relates to P. falciparum W2. Description: microbe, parasite or virus in culture. Type of series: cell-based, Plasmodium falciparum. The conditions noted are these: for EC50: Plasmodium falciparum, W2, read-out: P. falciparum W2 pEC50 (converted).

A value given as a limit tells only on which side of the number the result lay.

For the compound `C[C@]1(O)C[C@@H](c2nc(-c3ccc4ccc(-c5ccccc5)nc4c3)c3c(N)nccn32)C1` [NEU-976, linsitinib], the EC50 with T. brucei cells is more than 3.16 µM; with P. falciparum D6 it was 0.501 µM; with L. major promastigotes it was 7.94 µM; in series [1], more than 15.8 µM; in series [2], 10 µM; in the series with P. falciparum C235, 0.501 µM. In addition, the “host cell tox HepG2 pTC50” value with HepG2 cells amounted to 4.5. Besides, in the series with 3T3, the “host cell tox 3T3 pTC50” value is less than 4.
Take `CN1CC[C@H](c2c(O)cc(O)c3c(=O)cc(-c4ccccc4Cl)oc23)[C@H](O)C1` [NEU-987, flavopiridol]: the EC50 with T. brucei cells is 0.158 µM; in the series on P. falciparum W2, 2 µM; in the series on P. falciparum D6, 2 µM; with L. major promastigotes, 0.398 µM; in [1] it was 3.16 µM; in series [2] it was 12.6 µM. For the same compound, the EC50 in the series on P. falciparum C235 was 1.58 µM. In addition, the “host cell tox HepG2 pTC50” value in the series with HepG2 cells is less than 4.4. Also, the “host cell tox 3T3 pTC50” value with 3T3 is on record as less than 4.
On to `Nc1nc(NCCNc2ncc(-c3ncc[nH]3)c(-c3ccc(Cl)cc3Cl)n2)ccc1[N+](=O)[O-]` [NEU-978, CHIR-9801414], for which the “T. brucei pEC50 (within 46%)” value in the series on T. brucei cells (purchased inhibitors, Table 3) is recorded as less than 5.5. For the same compound, the “host cell tox HepG2 pTC50” value in the series with HepG2 cells came to 4.8. The “P. falciparum W2 pEC50” value with P. falciparum W2 (W2) is listed as less than 4.7. Besides, the “P. falciparum D6 pEC50” value with P. falciparum D6 (D6 strain) is reported as less than 4.7. In the series with L. major promastigotes (L. major promastigotes), the “Leishmania Promast pEC50” value is listed as 5.2. Also, in the series on 3T3, the “host cell tox 3T3 pTC50” value is recorded as less than 4. Besides, the “Leishmania Amast pEC50” value in series [1] (L. major intracellular amastigotes) is less than 4.8. In series [2] (intracellular amastigotes, Tulahuen strain), this compound showed a T. cruzi pEC50 (within 21%) of less than 4.3. Besides, the “P. falciparum C235 pEC50” value in the series on P. falciparum C235 (C235) is recorded as less than 4.7.
For the compound `CCc1cc2c(cc1N1CCC(N3CCOCC3)CC1)C(C)(C)c1[nH]c3cc(C#N)ccc3c1C2=O` [NEU-974, CH542480210], the EC50 in the series on T. brucei cells is more than 3.16 µM; in the series with P. falciparum W2, more than 20 µM; in the series with P. falciparum D6, 3.98 µM; in the series with L. major promastigotes, 0.126 µM; in series [1], more than 15.8 µM; in series [2], more than 50.1 µM. The EC50 with P. falciparum C235 was more than 20 µM. For the same compound, in the series on HepG2 cells, the “host cell tox HepG2 pTC50” value is given as less than 4.4. For the same compound, the “host cell tox 3T3 pTC50” value with 3T3 is less than 4.
In the case of `C[C@@H](Oc1cc(-c2cnn(C3CCNCC3)c2)cnc1N)c1c(Cl)ccc(F)c1Cl` [NEU-838, crizotinib], the “T. brucei proliferation activity (in words; active = pEC50 ≥ 6)” value in the series with T. brucei cells is reported as “potent T. brucei proliferation inhibitors”. In addition, the EC50 was 0.398 µM in the series with T. brucei cells; 0.0398 µM in the series on P. falciparum W2; 0.794 µM in the series on P. falciparum D6; 0.631 µM in the series on L. major promastigotes; 1.58 µM in [1]; 7.94 µM in series [2]. Moreover, in the series with P. falciparum C235, the EC50 was 0.1 µM. Moreover, in the series on HepG2 cells, the “host cell tox HepG2 pTC50” value is recorded as 5.4. In addition, the “host cell tox 3T3 pTC50” value in the series on 3T3 is listed as 4.8.
For the compound `CC(C)CC(=O)Nc1[nH]nc2c1CN(C(=O)C1CCN(C)CC1)C2(C)C` [NEU-1007, PHA-79388727], the EC50 in the series with T. brucei cells was 2 µM; in the series on P. falciparum W2 it was 2.51 µM; in the series with P. falciparum D6, 2 µM; in the series with L. major promastigotes, more than 25.1 µM; in series [1] it was more than 15.8 µM; in series [2], more than 50.1 µM. Moreover, the EC50 with P. falciparum C235 is 2.51 µM. Besides, the “host cell tox HepG2 pTC50” value with HepG2 cells is less than 4.4. Moreover, in the series on 3T3, the “host cell tox 3T3 pTC50” value is on record as less than 4.
`COc1ccc2c(c1)[nH]c1c(C)nccc12` [NEU-1049, harmine]: the EC50 with T. brucei cells is more than 3.16 µM; in the series with P. falciparum W2, more than 20 µM; in the series on P. falciparum D6 it was more than 20 µM; in the series with L. major promastigotes, 1.26 µM; in [1], 1.26 µM; in [2] it was 15.8 µM. For the same compound, the EC50 in the series on P. falciparum C235 was more than 20 µM. The “host cell tox HepG2 pTC50” value with HepG2 cells is on record as less than 5.1. Also, the “host cell tox 3T3 pTC50” value in the series on 3T3 is on record as less than 4.
Take `Nc1ncnc2c1c(-c1cccc(OCc3ccccc3)c1)cn2[C@H]1C[C@@H](CN2CCC2)C1` [NEU-967, NVP-AEW5414]: the EC50 was 2 µM with T. brucei cells; 1 µM in the series with P. falciparum W2; 1.26 µM in the series on P. falciparum D6; 0.1 µM in the series with L. major promastigotes; 3.98 µM in series [1]; 3.98 µM in [2]. Moreover, in the series on P. falciparum C235, the EC50 is 1.26 µM. Moreover, the “host cell tox HepG2 pTC50” value in the series on HepG2 cells was 5.5. In addition, the “host cell tox 3T3 pTC50” value in the series on 3T3 is on record as 4.8.
For `CC[C@@H]1C(=O)N(C)c2cnc(Nc3ccc(C(=O)N[C@H]4CC[C@H](N5CCN(CC6CC6)CC5)CC4)cc3OC)nc2N1C(C)C` [NEU-979, volasertib], the EC50 in the series with T. brucei cells was more than 3.16 µM; in the series with P. falciparum W2, 0.158 µM; in the series with P. falciparum D6 it was 0.158 µM; with L. major promastigotes, 1.58 µM; in [1], 7.94 µM; in series [2], 12.6 µM. Moreover, the EC50 in the series on P. falciparum C235 is 0.158 µM. Moreover, the “host cell tox HepG2 pTC50” value in the series with HepG2 cells was 5.5. Further, the “host cell tox 3T3 pTC50” value with 3T3 stood at 4.6.
In the case of `CC[C@@H]1C(=O)N(C)c2cnc(Nc3ccc(C(=O)NC4CCN(C)CC4)cc3OC)nc2N1C1CCCC1` [NEU-980, BI 253616], the EC50 in the series with T. brucei cells was 0.631 µM; with P. falciparum W2, 0.01 µM; in the series on P. falciparum D6, 0.02 µM; with L. major promastigotes it was 3.98 µM; in series [1] it was 7.94 µM; in [2], 20 µM. Besides, the EC50 in the series with P. falciparum C235 was 0.0126 µM. The “host cell tox HepG2 pTC50” value with HepG2 cells is reported as 5.6. The “host cell tox 3T3 pTC50” value in the series with 3T3 amounted to 4.5.
As to `CCCCOc1c(C(=O)c2c(F)cc(C)cc2F)c[nH]c2nncc1-2` [NEU-968, BMS-2652465], the EC50 in the series with T. brucei cells is 0.501 µM; in the series with P. falciparum W2 it was 10 µM; in the series on P. falciparum D6, 15.8 µM; in the series on L. major promastigotes, 0.251 µM; in series [1] it was more than 15.8 µM; in series [2], more than 50.1 µM. For the same compound, the EC50 in the series on P. falciparum C235 was 12.6 µM. For the same compound, in the series on HepG2 cells, the “host cell tox HepG2 pTC50” value is listed as less than 4.4. For the same compound, the “host cell tox 3T3 pTC50” value in the series with 3T3 was less than 4.
As for `O=C1NC(=O)C(c2ccccc2[N+](=O)[O-])=C1Nc1ccc(O)c(Cl)c1` [NEU-986, SB 41528622], the “host cell tox HepG2 pTC50” value with HepG2 cells was less than 4.4. Moreover, the “host cell tox 3T3 pTC50” value in the series with 3T3 is given as 4.2.
For `Cn1cc(C2=C(c3ccc(Cl)cc3Cl)C(=O)NC2=O)c2ccccc21` [NEU-990, SB 21676322], the EC50 is more than 3.16 µM in the series on T. brucei cells; more than 20 µM in the series with P. falciparum W2; more than 20 µM with P. falciparum D6; 2.51 µM in the series on L. major promastigotes; more than 15.8 µM in [1]; more than 50.1 µM in [2]. For the same compound, the EC50 in the series on P. falciparum C235 was more than 20 µM. Moreover, in the series on HepG2 cells, the “host cell tox HepG2 pTC50” value is recorded as less than 4.4. The “host cell tox 3T3 pTC50” value in the series with 3T3 is less than 4.
Take `CC[C@H](CO)Nc1nc(NCc2ccccc2)c2ncn(C(C)C)c2n1` [NEU-977, roscovitine]: the “host cell tox HepG2 pTC50” value in the series with HepG2 cells was 4.5. Also, the “host cell tox 3T3 pTC50” value in the series with 3T3 was less than 4.
Take `Nc1nc(Nc2ccc(S(N)(=O)=O)cc2)nn1C(=O)c1c(F)cccc1F` [NEU-971, JNJ-77066218]: the EC50 in the series with T. brucei cells was 0.316 µM; in the series on P. falciparum W2 it was 1 µM; in the series with P. falciparum D6, 2 µM; with L. major promastigotes it was more than 25.1 µM; in [1], more than 15.8 µM; in [2], more than 50.1 µM. The EC50 with P. falciparum C235 is 1.26 µM. In the series on HepG2 cells, the “host cell tox HepG2 pTC50” value is given as 5.2. In the series with 3T3, the “host cell tox 3T3 pTC50” value was less than 4.
Take `CCc1cnn2c(NCc3ccc[n+]([O-])c3)cc(N3CCCC[C@H]3CCO)nc12` [NEU-975, dinaciclib]: the “host cell tox HepG2 pTC50” value in the series on HepG2 cells is reported as less than 4.4. The “host cell tox 3T3 pTC50” value in the series with 3T3 is reported as less than 4.

Values taken from paper PMC4791575 (ACS Infectious Diseases, 2016).
